Measured values as given in paper PMC10046369, “Low-Affinity/High-Selectivity Dopamine Transport Inhibition Sufficient to Rescue Cognitive Functions in the Aging Rat” (Biomolecules, 2023).

What was measured:
Experiment in all cases: biochemical
Set-up in all cases: KINOMEscan competition binding panel, per cent of control
Conditions in all cases: read-out: %Ctrl @ 2800nM
PRKX = PRKX (Homo sapiens, UniProt P51817)
Method in brief: (§1)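 Competition binding panel (KINOMEscan) across 450 human kinases and disease-relevant mutants, run to the contractor's standard protocol. Values are % control: (test signal − positive control signal)/(negative control signal − positive control signal) × 100, with lower values indicating stronger binding.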

ERBB4 = ERBB4 (Homo sapiens, UniProt Q15303)
Method in brief: as §1

CAMKK1 = CAMKK1 (Homo sapiens, UniProt Q8N5S9)
Method in brief: as §1

PIK3CA(E545K) = PIK3CA(E545K) (Homo sapiens, UniProt P42336, E545K)
Method in brief: as §1

PRKD1 = PRKD1 (Homo sapiens, UniProt Q15139)
Method in brief: as §1

CSNK2A2 = CSNK2A2 (Homo sapiens, UniProt P19784)
Method in brief: as §1

EGFR(G719S) = EGFR(G719S) (Homo sapiens, UniProt P00533, G719S)
Method in brief: as §1

RIPK5 = molecular target: T1, RIPK5 (Homo sapiens, UniProt Q6XUX3)
T1 construct: gene DSTYK
Method in brief: as §1

CSNK1A1L = CSNK1A1L (Homo sapiens, UniProt Q8N752)
Method in brief: as §1

RIPK4 = RIPK4 (Homo sapiens, UniProt P57078)
Method in brief: as §1

ERK4 = molecular target: T2, ERK4 (Homo sapiens, UniProt P31152)
T2 construct: gene MAPK4
Method in brief: as §1

EPHA8 = EPHA8 (Homo sapiens, UniProt P29322)
Method in brief: as §1

ARK5 = molecular target: T3, ARK5 (Homo sapiens, UniProt O60285)
T3 construct: gene NUAK1
Method in brief: as §1

[1] = molecular target: T4, JAK1(JH1domain-catalytic) (Homo sapiens, UniProt P23458)
T4 construct: JH1domain-catalytic
Method in brief: as §1

MYLK2 = MYLK2 (Homo sapiens, UniProt Q9H1R3)
Method in brief: as §1

MEK4 = molecular target: T5, MEK4 (Homo sapiens, UniProt P45985)
T5 construct: gene MAP2K4
Method in brief: as §1

IKK-epsilon = molecular target: T6, IKK-epsilon (Homo sapiens, UniProt Q14164)
T6 construct: gene IKBKE
Method in brief: as §1

CDK2 = CDK2 (Homo sapiens, UniProt P24941)
Method in brief: as §1

EGFR(L747-T751del,Sins) = EGFR(L747-T751del,Sins) (Homo sapiens, UniProt P00533, DEL747-750/T751S)
Method in brief: as §1

PIK3CA(M1043I) = PIK3CA(M1043I) (Homo sapiens, UniProt P42336, M1043I)
Method in brief: as §1

SRPK3 = SRPK3 (Homo sapiens, UniProt Q9UPE1)
Method in brief: as §1

[2] = molecular target: T7, JAK3(JH1domain-catalytic) (Homo sapiens, UniProt P52333)
T7 construct: JH1domain-catalytic
Method in brief: as §1

AURKC = AURKC (Homo sapiens, UniProt Q9UQB9)
Method in brief: as §1

TGFBR2 = TGFBR2 (Homo sapiens, UniProt P37173)
Method in brief: as §1

EGFR = EGFR (Homo sapiens, UniProt P00533)
Method in brief: as §1

CSNK1G1 = CSNK1G1 (Homo sapiens, UniProt Q9HCP0)
Method in brief: as §1

T1 sequence (Q6XUX3 whole entry): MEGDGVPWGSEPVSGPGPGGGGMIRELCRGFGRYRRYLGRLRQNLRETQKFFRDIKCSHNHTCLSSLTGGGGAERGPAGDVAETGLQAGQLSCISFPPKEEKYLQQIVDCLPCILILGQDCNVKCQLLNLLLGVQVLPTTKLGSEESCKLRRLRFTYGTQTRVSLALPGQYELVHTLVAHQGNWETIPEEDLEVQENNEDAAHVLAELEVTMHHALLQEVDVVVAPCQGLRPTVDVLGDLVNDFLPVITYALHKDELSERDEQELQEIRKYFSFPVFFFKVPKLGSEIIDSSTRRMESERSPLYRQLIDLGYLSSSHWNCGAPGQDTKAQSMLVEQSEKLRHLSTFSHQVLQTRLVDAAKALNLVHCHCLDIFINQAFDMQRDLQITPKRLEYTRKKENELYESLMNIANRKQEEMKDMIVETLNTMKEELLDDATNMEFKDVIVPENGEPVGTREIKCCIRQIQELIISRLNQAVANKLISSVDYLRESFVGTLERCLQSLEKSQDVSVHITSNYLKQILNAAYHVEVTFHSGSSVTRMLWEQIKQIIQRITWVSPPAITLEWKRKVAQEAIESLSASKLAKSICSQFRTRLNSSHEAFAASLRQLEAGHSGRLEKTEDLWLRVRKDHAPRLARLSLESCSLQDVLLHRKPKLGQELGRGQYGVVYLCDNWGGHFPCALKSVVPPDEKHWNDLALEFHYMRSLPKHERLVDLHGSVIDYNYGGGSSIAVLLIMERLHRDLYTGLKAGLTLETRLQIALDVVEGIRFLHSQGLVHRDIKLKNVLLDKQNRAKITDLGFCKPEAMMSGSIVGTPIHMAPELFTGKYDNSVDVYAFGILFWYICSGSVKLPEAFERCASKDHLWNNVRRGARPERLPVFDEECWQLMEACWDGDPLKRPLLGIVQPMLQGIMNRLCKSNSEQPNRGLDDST
Chain of CAMKK1 (Q8N5S9 whole entry): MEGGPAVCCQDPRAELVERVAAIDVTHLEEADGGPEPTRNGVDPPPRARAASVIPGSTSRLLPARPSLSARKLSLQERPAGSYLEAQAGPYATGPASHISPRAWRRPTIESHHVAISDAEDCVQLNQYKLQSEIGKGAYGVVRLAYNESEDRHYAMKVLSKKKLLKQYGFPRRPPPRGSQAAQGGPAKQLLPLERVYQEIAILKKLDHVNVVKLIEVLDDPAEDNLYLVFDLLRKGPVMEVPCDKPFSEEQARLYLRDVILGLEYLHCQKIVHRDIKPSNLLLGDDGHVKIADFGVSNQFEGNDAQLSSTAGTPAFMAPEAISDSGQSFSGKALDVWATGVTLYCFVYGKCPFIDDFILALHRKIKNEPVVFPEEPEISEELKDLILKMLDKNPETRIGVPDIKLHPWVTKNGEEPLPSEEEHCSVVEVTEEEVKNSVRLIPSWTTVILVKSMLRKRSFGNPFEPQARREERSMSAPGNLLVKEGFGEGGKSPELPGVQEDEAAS
T2 sequence (P31152 whole entry): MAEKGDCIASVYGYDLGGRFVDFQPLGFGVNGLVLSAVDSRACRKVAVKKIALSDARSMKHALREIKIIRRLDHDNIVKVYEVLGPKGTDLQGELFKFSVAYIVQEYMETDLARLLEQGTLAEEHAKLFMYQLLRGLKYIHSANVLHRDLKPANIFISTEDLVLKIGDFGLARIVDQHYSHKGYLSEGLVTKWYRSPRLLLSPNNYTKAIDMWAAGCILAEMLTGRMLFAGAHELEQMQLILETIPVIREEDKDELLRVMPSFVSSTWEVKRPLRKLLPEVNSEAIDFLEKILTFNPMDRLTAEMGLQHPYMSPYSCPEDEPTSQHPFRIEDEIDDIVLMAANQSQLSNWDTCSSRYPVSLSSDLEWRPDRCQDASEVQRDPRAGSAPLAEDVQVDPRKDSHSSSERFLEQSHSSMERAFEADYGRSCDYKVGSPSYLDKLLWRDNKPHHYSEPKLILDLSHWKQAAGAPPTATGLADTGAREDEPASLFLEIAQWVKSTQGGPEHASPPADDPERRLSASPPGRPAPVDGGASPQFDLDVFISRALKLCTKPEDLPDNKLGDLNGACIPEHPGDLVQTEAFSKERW
Chain of EGFR(L747-T751del,Sins) (P00533 with tags, fused parts or gaps DEL747-750/T751S): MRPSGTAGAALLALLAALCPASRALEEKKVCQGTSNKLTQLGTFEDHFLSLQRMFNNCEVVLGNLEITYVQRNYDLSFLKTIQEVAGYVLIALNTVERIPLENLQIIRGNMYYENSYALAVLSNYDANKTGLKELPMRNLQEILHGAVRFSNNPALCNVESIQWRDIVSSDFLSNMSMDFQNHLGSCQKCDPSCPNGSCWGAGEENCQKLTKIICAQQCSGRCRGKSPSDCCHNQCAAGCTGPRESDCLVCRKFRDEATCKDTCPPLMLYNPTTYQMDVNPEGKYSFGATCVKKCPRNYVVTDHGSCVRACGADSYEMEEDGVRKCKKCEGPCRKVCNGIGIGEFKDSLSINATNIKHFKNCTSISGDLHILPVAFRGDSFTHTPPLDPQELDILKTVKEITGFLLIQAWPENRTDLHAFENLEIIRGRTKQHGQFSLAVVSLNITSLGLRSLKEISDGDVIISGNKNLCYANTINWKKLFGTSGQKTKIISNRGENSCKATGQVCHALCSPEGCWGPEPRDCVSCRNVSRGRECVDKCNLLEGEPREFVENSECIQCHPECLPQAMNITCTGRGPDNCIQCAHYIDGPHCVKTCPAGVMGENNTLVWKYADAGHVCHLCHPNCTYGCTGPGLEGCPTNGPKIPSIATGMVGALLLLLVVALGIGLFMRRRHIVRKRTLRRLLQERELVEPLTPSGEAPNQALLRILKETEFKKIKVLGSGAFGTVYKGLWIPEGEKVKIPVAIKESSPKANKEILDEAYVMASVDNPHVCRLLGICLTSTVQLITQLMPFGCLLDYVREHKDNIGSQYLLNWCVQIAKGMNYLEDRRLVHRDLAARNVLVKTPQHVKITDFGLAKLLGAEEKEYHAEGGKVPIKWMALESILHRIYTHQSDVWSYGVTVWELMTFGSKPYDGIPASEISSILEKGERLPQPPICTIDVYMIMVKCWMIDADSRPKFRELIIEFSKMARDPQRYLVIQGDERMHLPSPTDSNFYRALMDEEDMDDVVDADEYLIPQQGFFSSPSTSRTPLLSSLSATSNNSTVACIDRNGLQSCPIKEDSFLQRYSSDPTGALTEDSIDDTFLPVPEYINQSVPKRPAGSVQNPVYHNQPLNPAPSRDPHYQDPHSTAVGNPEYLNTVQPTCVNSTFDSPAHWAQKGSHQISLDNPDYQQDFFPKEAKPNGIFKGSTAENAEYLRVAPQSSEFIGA
Chain of RIPK4 (P57078 whole entry): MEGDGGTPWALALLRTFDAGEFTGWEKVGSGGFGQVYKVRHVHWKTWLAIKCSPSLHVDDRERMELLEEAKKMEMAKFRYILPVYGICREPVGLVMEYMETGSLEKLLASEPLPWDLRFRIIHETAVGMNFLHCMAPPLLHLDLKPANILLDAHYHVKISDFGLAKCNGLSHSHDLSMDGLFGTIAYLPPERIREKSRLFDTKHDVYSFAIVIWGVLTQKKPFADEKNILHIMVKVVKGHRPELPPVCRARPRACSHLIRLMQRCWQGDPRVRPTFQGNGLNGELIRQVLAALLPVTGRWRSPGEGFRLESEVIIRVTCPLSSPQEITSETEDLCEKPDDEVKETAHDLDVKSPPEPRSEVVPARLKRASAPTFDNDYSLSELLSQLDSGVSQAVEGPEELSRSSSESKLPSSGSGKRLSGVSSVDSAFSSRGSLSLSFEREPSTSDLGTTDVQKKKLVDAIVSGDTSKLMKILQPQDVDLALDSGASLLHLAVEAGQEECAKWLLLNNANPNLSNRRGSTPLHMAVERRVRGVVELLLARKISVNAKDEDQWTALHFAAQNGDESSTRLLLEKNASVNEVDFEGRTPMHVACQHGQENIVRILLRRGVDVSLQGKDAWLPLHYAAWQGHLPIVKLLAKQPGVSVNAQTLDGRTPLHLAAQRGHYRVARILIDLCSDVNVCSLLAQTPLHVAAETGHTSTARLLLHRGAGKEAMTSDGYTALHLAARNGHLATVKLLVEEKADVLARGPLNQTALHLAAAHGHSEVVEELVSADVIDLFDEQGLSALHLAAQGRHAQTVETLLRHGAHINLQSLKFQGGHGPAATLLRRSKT
Chain of TGFBR2 (P37173 whole entry): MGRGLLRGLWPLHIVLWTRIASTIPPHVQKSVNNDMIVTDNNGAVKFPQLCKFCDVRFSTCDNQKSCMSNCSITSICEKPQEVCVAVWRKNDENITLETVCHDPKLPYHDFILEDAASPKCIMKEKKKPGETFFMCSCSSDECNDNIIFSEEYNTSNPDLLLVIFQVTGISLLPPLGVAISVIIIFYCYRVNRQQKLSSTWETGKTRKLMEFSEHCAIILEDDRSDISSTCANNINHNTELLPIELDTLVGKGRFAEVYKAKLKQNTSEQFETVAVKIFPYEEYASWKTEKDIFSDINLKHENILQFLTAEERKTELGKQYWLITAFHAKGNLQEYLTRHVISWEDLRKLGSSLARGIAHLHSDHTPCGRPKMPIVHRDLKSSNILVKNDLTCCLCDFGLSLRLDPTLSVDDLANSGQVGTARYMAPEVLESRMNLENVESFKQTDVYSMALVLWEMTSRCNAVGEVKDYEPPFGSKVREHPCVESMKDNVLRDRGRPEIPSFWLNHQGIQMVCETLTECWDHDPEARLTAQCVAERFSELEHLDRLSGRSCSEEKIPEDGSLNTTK
Chain of CSNK1A1L (Q8N752 whole entry): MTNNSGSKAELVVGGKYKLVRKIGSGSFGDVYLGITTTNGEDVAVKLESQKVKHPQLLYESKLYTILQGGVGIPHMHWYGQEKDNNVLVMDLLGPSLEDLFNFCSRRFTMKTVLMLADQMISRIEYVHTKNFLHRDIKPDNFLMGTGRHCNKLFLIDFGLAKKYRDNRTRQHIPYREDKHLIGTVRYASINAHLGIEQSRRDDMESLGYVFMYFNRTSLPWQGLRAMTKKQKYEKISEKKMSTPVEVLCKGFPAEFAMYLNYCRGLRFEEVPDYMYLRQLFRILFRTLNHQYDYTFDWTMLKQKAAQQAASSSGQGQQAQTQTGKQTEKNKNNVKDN

[O-][S@@+](Cc1cncs1)C(c1ccccc1)c1ccccc1 [S-CE-123, (S)-5-((Benzhydrylsulfinyl)Methyl)Thiazole]
remaining binding at 2.8 µM (PRKX): 100%
remaining binding at 2.8 µM (ERBB4): 96%
remaining binding at 2.8 µM (CAMKK1): 95%
remaining binding at 2.8 µM (PIK3CA(E545K)): 82%
remaining binding at 2.8 µM (PRKD1): 92%
remaining binding at 2.8 µM (CSNK2A2): 100%
remaining binding at 2.8 µM (EGFR(G719S)): 77%
remaining binding at 2.8 µM (RIPK5): 95%
remaining binding at 2.8 µM (CSNK1A1L): 100%
remaining binding at 2.8 µM (RIPK4): 97%
remaining binding at 2.8 µM (ERK4): 100%
remaining binding at 2.8 µM (EPHA8): 100%
remaining binding at 2.8 µM (ARK5): 100%
remaining binding at 2.8 µM [1]: 93%
remaining binding at 2.8 µM (MYLK2): 99%
remaining binding at 2.8 µM (MEK4): 100%
remaining binding at 2.8 µM (IKK-epsilon): 98%
remaining binding at 2.8 µM (CDK2): 94%
remaining binding at 2.8 µM (EGFR(L747-T751del,Sins)): 57%
remaining binding at 2.8 µM (PIK3CA(M1043I)): 63%
remaining binding at 2.8 µM (SRPK3): 76%
remaining binding at 2.8 µM [2]: 100%
remaining binding at 2.8 µM (AURKC): 100%
remaining binding at 2.8 µM (TGFBR2): 88%
remaining binding at 2.8 µM (EGFR): 92%
remaining binding at 2.8 µM (CSNK1G1): 96%
